In PubChem BioAssay AID1949 (Southern Research Institute, 2009):
≈ marks a conversion by molar mass, not a printed value. Results filed as inconclusive are left out. Calls of active or inactive are those of the source. No rule for the calls is given here.

Test system: M. tuberculosis H37Rv growth inhibition
Experiment: Confirmatory growth inhibition assay against Mycobacterium tuberculosis H37Rv, potency (AID 1949);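 also: bacteria grown 7 days with compound before Alamar blue readout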

| SMILES | IC50 |
| --- | --- |
| CC1(C)CC(=O)C2=C(C1)NC(Nc1nc3ccccc3o1)=NC2c1cccc(Br)c1 (stereo not drawn) | 3.24 µg/mL (≈ 6.96 µM) |
| CC1=Nc2ccccc2N=C(N)C1c1ccc(Cl)cc1 (stereo not drawn) | 15 µg/mL (≈ 52.8 µM) |
| O=C(c1ccc(Cl)cc1)c1ccc(OCC(O)CN2CCN(Cc3ccccc3)CC2)cc1 (stereo not drawn) | 2.75 µg/mL (≈ 5.91 µM) |
| O=C(O)c1ccc(C2Nc3ccc([N+](=O)[O-])cc3C3c4ccccc4CC23)cc1 (stereo not drawn) | > 50 µg/mL (inactive) |
| Cc1ccc(NC(=S)Nc2ccc(Cl)c(Cl)c2)c(OC(F)F)c1 | 2.92 µg/mL (≈ 7.74 µM) |
| O=[N+]([O-])/C=C/c1cccn1-c1ccc(F)cc1 | 7.57 µg/mL (≈ 32.6 µM) |
| CCc1cc2c(=O)c(Oc3ccc(-c4ccccc4)cc3)coc2cc1OC(C)=O | 5.89 µg/mL (≈ 14.7 µM) |
| O=C(NC12CC3CC(CC(C3)C1)C2)N1CCN(c2cccc(Cl)c2)CC1 | 8.14 µg/mL (≈ 21.8 µM) |
| C=CCc1cc(Cl)ccc1OCCCCn1ccnc1 | 2.09 µg/mL (≈ 7.19 µM) |
| CCOC(=O)Cn1cc(/C=C(/C#N)c2nc3ccc(OC)cc3[nH]2)c2ccccc21 | 0.74 µg/mL (≈ 1.85 µM) |
| Cc1cc(C)nc(/N=C(\N)Nc2cc(Cl)ccc2Oc2ccccc2)n1 | 2.21 µg/mL (≈ 6.01 µM) |
| CC(=O)Oc1ccc2nc(-c3ccc(C(C)(C)C)cc3)oc(=O)c2c1 | > 50 µg/mL (inactive) |
| COc1cccc(-n2nnnc2S(C)(=O)=O)c1 | 1.16 µg/mL (≈ 4.56 µM) |
| COc1ccc(N/C(N)=N/c2nc(-c3cccs3)cc(C(F)(F)F)n2)cc1 | > 50 µg/mL (inactive) |
| Cc1ccc2nc(-c3ccc(N/C(N)=N\c4nc(C)cc(C)n4)cc3)sc2c1 | 25.7 µg/mL (≈ 66.2 µM) |
| COc1ccc(C(=O)N=Nc2c(O)[nH]c3ccc(Br)cc23)cc1 | 19.9 µg/mL (≈ 53.1 µM) |
| CC(C)(C)c1ccc(C(=O)Nc2nc(-c3ccccc3)ns2)cc1 | 3.05 µg/mL (≈ 9.04 µM) |
| CCOC(=O)Cn1cc(C#N)c2cccc(CC)c21 | 0.87 µg/mL (≈ 3.39 µM) |
| Fc1ccc(CCNC(=S)Nc2ccc(Nc3ccccc3)cc2)cc1 | > 50 µg/mL (inactive) |
| COC(=O)COc1ccc(NC(=O)COc2cccc(C)c2)cc1 | 0.77 µg/mL (≈ 2.34 µM) |

| SMILES | IC50 |
| --- | --- |
| O=C(COc1cccc2ccccc12)c1ccc(F)cc1 | 2.82 µg/mL (≈ 10.1 µM) |
| CCOC(=O)c1ccc(NC(=S)NCCN2CCc3ccccc3C2)cc1 | 31 µg/mL (≈ 80.8 µM) |
| COc1ccc(-c2oc3ncn(CCCn4ccnc4)c(=N)c3c2-c2ccc(OC)cc2)cc1 | 3.79 µg/mL (≈ 8.32 µM) |
| CC(=O)Oc1cc(C)cc2oc(=O)c3c(c12)CCCC3 | 3.85 µg/mL (≈ 14.1 µM) |
| CCOC(=O)COc1ccc2cc(-c3nc4ccccc4s3)c(=O)oc2c1 | 1.35 µg/mL (≈ 3.54 µM) |
| Brc1ccc(Nc2nc(-c3ccccn3)cs2)cc1 | 0.13 µg/mL (≈ 0.391 µM) |
| O=C(OCc1c(Cl)cccc1Cl)c1cc2ccccc2oc1=O | > 50 µg/mL (inactive) |
| C=CCc1cc(/C=C/[N+](=O)[O-])cc(OCC)c1O | 5.69 µg/mL (≈ 22.8 µM) |
| CCOC(=O)Cn1nnc(-c2ccc(OCc3ccccc3C)cc2)n1 | < 0.1 µg/mL |
| O=C(CC1(O)C(=O)N(CCc2ccccc2)c2ccc(Cl)cc21)c1ccccn1 (stereo not drawn) | 5.07 µg/mL (≈ 12.5 µM) |
| COc1ccc(Nc2sc(C(=O)C34CC5CC(CC(C5)C3)C4)c(N)c2C#N)cc1 | 12.1 µg/mL (≈ 29.6 µM) |
| O=C(Nc1ccccc1N1CCCC1)c1ccc(-c2cccc(Cl)c2)o1 | 6.01 µg/mL (≈ 16.4 µM) |
| COC(=O)COc1ccc2c(-c3ccc(OC)cc3)cc(=O)oc2c1 | 0.86 µg/mL (≈ 2.53 µM) |
| Cc1ccc(C(=O)NC(=S)Nc2ccc(S(=O)(=O)NC(C)C)cc2)cc1Br | 3.75 µg/mL (≈ 7.97 µM) |
| NC(=O)CSc1nnc(SCc2cccc3ccccc23)s1 | 15.1 µg/mL (≈ 43.5 µM) |
| COc1ccc(-c2cc(-c3ccccc3)nc(-n3nc(C)cc3C)n2)cc1 | 4.22 µg/mL (≈ 11.8 µM) |
| COC(=O)CSc1nnc(SCc2ccc(OC)cc2)s1 | 2.28 µg/mL (≈ 6.66 µM) |
| CC(NC(=S)NC(=O)c1ccc(-c2ccccc2)cc1)c1ccccc1 (stereo not drawn) | 5.85 µg/mL (≈ 16.2 µM) |
| CN1CCC(O)(c2cccs2)C(C(=O)c2cccs2)C1 (stereo not drawn) | 1.54 µg/mL (≈ 5.01 µM) |
| COC(=O)COc1ccc(/C=C(/C#N)c2nc3ccccc3[nH]2)cc1 | 0.67 µg/mL (≈ 2.01 µM) |

| SMILES | IC50 |
| --- | --- |
| Cc1ccc(NC(=O)COc2ccc(F)cc2)cc1 | > 50 µg/mL (inactive) |
| COc1ccc(Cl)cc1C(=O)Nc1ccc(N2CCN(Cc3ccccc3F)CC2)cc1 | 3.36 µg/mL (≈ 7.4 µM) |
| Cc1cc(C)nc(/N=C(/N)Nc2ccc(OCc3ccccc3)cc2)n1 | 4.64 µg/mL (≈ 13.4 µM) |
| Cc1ccc(CN2C(=O)C(=O)c3cc(Br)ccc32)c(C)c1 | 8.44 µg/mL (≈ 24.5 µM) |
| COc1c2ccoc2nc2c(OC)cccc12 | 1.76 µg/mL (≈ 7.68 µM) |
| O=c1cc(-c2ccccc2)nc2c(-c3cccc4ccccc34)c(Cc3ccccc3)[nH]n12 | 41.9 µg/mL (≈ 98.1 µM) |
| O=C(c1ccccc1)c1ccc(OCC(O)Cn2cnc3ccccc32)cc1 (stereo not drawn) | 1.51 µg/mL (≈ 4.05 µM) |
| C/C(Cl)=C/Cc1c(C)[nH]c2ccccc2c1=O | 16.6 µg/mL (≈ 67.2 µM) |
| O=c1cc(-c2ccccc2)[nH]n1-c1ccc([N+](=O)[O-])cc1 | 10.8 µg/mL (≈ 38.5 µM) |
| O=c1c2c(-c3ccc(Cl)cc3)csc2nc2c3ccccc3c(NCCN3CCOCC3)nn12 | 11.2 µg/mL (≈ 22.8 µM) |
| Cc1ccn2c(-c3csc(Nc4ccccn4)n3)c(C)nc2c1 | 0.24 µg/mL (≈ 0.747 µM) |
| COc1cccc(-n2nnnc2S(=O)(=O)Cc2ccccc2)c1 | 0.38 µg/mL (≈ 1.15 µM) |
| Fc1ccccc1C1NC(=S)NC2=C1CCc1ccccc12 (stereo not drawn) | 9.36 µg/mL (≈ 30.2 µM) |
| O=C(CCNc1cccc(Br)c1)c1cccs1 | 5.43 µg/mL (≈ 17.5 µM) |
| CC(=O)Nc1ccc2cccc(O)c2n1 | 0.96 µg/mL (≈ 4.75 µM) |
| OC(COc1ccccc1Br)CN1CCN(C(c2ccccc2)c2ccccc2)CC1 (stereo not drawn) | 5.33 µg/mL (≈ 11.1 µM) |
| O=C(Nc1ccc(Cc2ccncc2)cc1)c1ccc(-c2cccc(C(F)(F)F)c2)o1 | 12 µg/mL (≈ 28.5 µM) |
| O=C(CCCC(=O)N1CCC(Cc2ccccc2)CC1)N1CCC(Cc2ccccc2)CC1 | 12.1 µg/mL (≈ 27.1 µM) |
